pIC50, pKi: −log10 of the molar value.
Assays:
[1] = Displacement of [3H]2BFI from imidazoline I2 receptor in Sprague-Dawley rat brain by liquid scintillation counting
[2] = target: T1, Adrenergic receptor alpha-2 (Rattus norvegicus, UniProt P22086+P19328+P22909); assay: Displacement of [3H]RX821002 from alpha2 adrenoceptor in Sprague-Dawley rat kidney by liquid scintillation counting; format: tissue-based
T1 sequence (P22086 whole entry): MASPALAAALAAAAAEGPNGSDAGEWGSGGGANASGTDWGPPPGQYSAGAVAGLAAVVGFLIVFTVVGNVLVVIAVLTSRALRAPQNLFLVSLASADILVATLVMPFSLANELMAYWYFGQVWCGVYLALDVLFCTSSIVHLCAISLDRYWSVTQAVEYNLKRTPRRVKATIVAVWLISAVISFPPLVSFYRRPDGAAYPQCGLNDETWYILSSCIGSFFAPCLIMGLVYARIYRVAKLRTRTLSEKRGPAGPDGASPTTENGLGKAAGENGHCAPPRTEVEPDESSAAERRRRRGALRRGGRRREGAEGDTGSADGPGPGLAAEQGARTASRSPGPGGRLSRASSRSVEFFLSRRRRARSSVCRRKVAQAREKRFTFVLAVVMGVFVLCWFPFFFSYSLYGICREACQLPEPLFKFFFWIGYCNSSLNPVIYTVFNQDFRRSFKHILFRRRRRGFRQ
T1 sequence (P19328 whole entry): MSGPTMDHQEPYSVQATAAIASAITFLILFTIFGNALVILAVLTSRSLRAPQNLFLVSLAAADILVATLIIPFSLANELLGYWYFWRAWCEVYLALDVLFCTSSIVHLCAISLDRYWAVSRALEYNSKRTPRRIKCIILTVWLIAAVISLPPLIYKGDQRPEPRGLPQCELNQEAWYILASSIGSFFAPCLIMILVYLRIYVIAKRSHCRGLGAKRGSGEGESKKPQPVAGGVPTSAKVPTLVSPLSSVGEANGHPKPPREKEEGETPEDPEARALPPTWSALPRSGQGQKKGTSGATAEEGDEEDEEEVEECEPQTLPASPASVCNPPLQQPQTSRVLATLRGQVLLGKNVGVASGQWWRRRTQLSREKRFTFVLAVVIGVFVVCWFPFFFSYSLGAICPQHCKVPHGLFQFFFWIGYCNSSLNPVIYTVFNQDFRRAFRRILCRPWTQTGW
T1 sequence (P22909 whole entry): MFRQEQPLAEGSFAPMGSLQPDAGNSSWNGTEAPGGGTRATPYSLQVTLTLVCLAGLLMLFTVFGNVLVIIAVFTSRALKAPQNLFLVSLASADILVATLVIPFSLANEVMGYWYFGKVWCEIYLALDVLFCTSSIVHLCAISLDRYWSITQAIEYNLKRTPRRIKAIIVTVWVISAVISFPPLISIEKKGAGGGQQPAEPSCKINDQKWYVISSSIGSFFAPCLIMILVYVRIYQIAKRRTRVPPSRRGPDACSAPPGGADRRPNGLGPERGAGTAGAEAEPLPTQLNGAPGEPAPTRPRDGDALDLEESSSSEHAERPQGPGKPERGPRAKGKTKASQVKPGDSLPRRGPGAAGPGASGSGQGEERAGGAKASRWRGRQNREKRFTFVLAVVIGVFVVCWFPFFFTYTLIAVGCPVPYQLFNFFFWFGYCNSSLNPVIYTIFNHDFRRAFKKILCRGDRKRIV

[3] = target: T2, Nischarin (Rattus norvegicus, UniProt Q4G017); assay: Displacement of [3H]clonidine from imidazoline I1 receptor in Sprague-Dawley rat kidney by liquid scintillation counting
T2 sequence (Q4G017 whole entry): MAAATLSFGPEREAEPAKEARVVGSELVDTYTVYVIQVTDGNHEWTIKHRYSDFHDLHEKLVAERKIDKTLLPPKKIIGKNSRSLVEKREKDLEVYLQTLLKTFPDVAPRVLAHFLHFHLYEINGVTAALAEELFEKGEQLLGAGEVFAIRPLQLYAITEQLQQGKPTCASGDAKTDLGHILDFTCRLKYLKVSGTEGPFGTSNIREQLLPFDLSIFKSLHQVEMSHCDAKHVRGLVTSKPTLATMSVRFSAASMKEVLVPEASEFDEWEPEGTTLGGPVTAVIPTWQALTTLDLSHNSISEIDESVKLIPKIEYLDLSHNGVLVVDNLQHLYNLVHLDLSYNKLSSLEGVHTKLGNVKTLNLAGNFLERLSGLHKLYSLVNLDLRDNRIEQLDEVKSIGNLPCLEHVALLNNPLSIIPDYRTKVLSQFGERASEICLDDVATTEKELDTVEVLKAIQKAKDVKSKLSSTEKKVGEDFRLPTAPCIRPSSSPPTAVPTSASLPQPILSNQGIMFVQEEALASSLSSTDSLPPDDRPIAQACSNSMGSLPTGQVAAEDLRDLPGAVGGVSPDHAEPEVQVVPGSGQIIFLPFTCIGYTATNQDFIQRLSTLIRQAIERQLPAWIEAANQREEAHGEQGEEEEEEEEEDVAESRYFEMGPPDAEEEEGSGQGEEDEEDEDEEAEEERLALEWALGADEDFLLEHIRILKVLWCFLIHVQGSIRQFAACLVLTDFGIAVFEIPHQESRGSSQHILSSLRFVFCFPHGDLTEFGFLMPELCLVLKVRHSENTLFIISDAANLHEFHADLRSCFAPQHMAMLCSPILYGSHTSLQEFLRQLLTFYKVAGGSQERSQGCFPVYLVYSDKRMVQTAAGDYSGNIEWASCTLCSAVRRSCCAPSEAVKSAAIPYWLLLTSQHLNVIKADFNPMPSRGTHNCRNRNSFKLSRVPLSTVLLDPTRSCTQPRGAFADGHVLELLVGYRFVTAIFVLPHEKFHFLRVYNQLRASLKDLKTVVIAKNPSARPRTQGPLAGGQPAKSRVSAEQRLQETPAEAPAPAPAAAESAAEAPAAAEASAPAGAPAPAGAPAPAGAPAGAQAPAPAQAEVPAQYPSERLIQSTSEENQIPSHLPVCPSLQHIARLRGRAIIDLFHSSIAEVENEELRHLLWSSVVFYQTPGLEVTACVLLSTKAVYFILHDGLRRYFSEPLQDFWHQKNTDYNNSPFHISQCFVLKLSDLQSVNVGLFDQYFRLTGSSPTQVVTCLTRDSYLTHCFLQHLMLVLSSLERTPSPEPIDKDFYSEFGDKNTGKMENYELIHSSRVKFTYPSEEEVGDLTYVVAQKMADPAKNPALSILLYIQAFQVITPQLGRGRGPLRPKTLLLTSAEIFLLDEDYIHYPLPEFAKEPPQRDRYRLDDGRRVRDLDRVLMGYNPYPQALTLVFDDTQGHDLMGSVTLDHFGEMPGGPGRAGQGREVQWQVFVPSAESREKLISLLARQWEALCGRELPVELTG

[4] = Displacement of [3H]2BFI from imidazoline I2 receptor in Wistar rat brain by liquid scintillation counting
[5] = target: T2, Nischarin; assay: Displacement of [3H]clonidine from imidazoline I1 receptor in Wistar rat kidney by liquid scintillation counting
[6] = target: T1, Adrenergic receptor alpha-2; assay: Displacement of [3H]RX821002 from alpha2 adrenoceptor in Wistar rat kidney by liquid scintillation counting; format: tissue-based

Row | Compound | pKi [1] | Ki [2] [µM] | pIC50 [3] | pKi [4] | pIC50 [5] | Ki [6] [µM]
1 | Br.NCC[C@@H]1CN=C(N)N1 | < 4.00 | 18.82 | < 4.00 |  |  | 
2 | Br.CC(=O)NCC[C@@H]1CN=C(N)N1 | < 4.00 | > 100 | 3.42 |  |  | 
3 | CC(=O)NCC[C@H]1CN=CN1.CC(=O)O | < 4.00 | > 100 | 3.67 |  |  | 
4 | Br.NCC[C@@H]1CN=CN1 | < 4.00 | 62.07 | 4.78 |  |  | 
5 | Br.CN(C)CC[C@H]1CN=C(N)N1 | < 4.00 | > 52.86 | 4.35 |  |  | 
6 | Br.NCC[C@H]1CN=CN1 | 4.18 | > 100 | < 4.00 |  |  | 
7 | Br.CC(=O)NCC[C@H]1CN=C(N)N1 | < 4.00 | > 100 | 3.63 |  |  | 
8 | NCCCCN=C(N)N [AGMATINE] |  |  |  | 3.38 | 4.44 | 31.7

Now from value to compound, other results behind:

Row | pKi [1] | Ki [2] [µM] | pIC50 [3] | Compound | pKi [4] | pIC50 [5] | Ki [6] [µM]
9 | < 4.00 | > 100 | 4.19 | CN(C)CC[C@H]1CN=CN1.Cl.Cl |  |  | 
10 | 5.73 | 76.44 | 3.94 | Br.CC1=NC[C@H](CCN)N1 |  |  | 
11 | 4.26 | 11.77 | 6.32 | Br.NCC[C@H]1CN=C(N)N1 |  |  | 
12 | 6.44 |  | 6.44 | Clc1cccc(Cl)c1NC1=NCCN1 [CLONIDINE] |  |  | 

From ChEMBL document CHEMBL1143281, “New analogues of agmatine with higher affinity to imidazoline receptors” (Bioorg Med Chem Lett, 2009)
